Test results taken from publication PMC9036094, “Antigen-derived peptides engage the ER stress sensor IRE1α to curb dendritic cell cross-presentation” (The Journal of Cell Biology, 2022).
Peptide text beside a SMILES is read from it. * marks the point of attachment. Cbz = O=C(OCc1ccccc1)*

Legend:
[1] = tested on: IRE1α (XBP1s, pIRE1α) in BMDCs; test: IRE1α activation in BMDCs (immunoblot); assay type: cell-based, mouse; settings: in words; for IRE1α activation: GM-CSF + IL-4 BMDCs, immunoblot for XBP1s/pIRE1α
Method: Figure 1. Antigen pulsing of BMDCs activates IRE1α. (A) BMDCs were pulsed with ovalbumin (starting at 62.5 μg/ml and sequentially doubled) and analyzed by immunoblot (IB) for the indicated markers. (B) BMDCs were pulsed with ovalbumin (starting at 500 μg/ml and sequentially halved) or […] (1 μM), or stimulated with tunicamycin (1 μg/ml) or poly-I:C (25 μg/ml) for 4 h, and analyzed by IB. (C) BMDCs were pulsed with ovalbumin (500 μg/ml) for indicated time points and analyzed by IB. (D) BMDCs were pulsed for 4 h with ovalbumin or lysates derived from the indicated cell lines (500 μg/ml protein) and analyzed by IB. […] (F) Upon removal from bone marrow, total bone marrow cells were transfected with non-targeting control (NTC) or TAP1-targeting gRNAs, along with CRISPR/Cas9 delivery constructs. Cells were then subjected to standard BMDC-differentiation protocol, pulsed with ovalbumin (500 μg/ml) for 4 h, and analyzed by IB. All IB images are representative of at least two similar experiments, and molecular weights represent kD. Source data are available for this figure: SourceData F1.
For purification and differentiation of BMDCs, the femur and tibia bones of C57BL/6 mice were flushed with sterile PBS, and bone marrow cells were then cultured in RPMI1640 media as described above and further supplemented with […] β2-mercaptoethanol (Sigma-Aldrich), 20 ng/ml GM-CSF (BioLegend), and 10 ng/ml IL-4 (BioLegend) for 9 d, with media being replenished every 3 d. Where indicated, Flt3L-BMDCs were similarly generated using media supplemented with 200 ng/ml recombinant mouse Flt3L (PeproTech; [Brasel et al., 2000]). After 9 d of culture, BMDCs were routinely verified to be >90% CD11c^+ MHC-II^high by flow cytometry analysis.
Thapsigargin (Sigma-Aldrich) was used at 100 nM, tunicamycin (Sigma-Aldrich) was used at 5 μg/ml, MG132 (Sigma-Aldrich) was used at 5 μM, Amiloride (Sigma-Aldrich) was used at 10 μM, actinomycin D (Sigma-Aldrich) was used at 4 μg/ml, LPS (Sigma-Aldrich) was used at 10 μg/ml, and poly-I:C (Sigma-Aldrich) was used at 25 μg/ml. Ovalbumin (Sigma-Aldrich), EF-OVA (EndoFit; InvivoGen), […] peptide (Sigma-Aldrich), and human CD4-Fc fusion protein (generated in-house at Genentech) were dissolved in PBS prior to pulsing and used at indicated concentrations.
Cells were lysed in PBS solution supplemented with 1X radioimmunoprecipitation assay buffer (Millipore) and 2X Halt protease-phosphatase inhibitor cocktail (Thermo Fisher Scientific). Upon clearance, samples were analyzed by SDS-PAGE, electrotransferred to nitrocellulose membranes (Invitrogen), and blocked by 5% powdered milk in PBSt (PBS supplemented with 0.1% tween) solution. Development was conducted with ECL reagent (Thermo Fisher Scientific) and imaging was performed with the ChemiDoc ZRS+ imager (Bio-Rad). Antibodies used for Western blot analysis include IRE1α (3294, rabbit; Cell Signaling Technology), β-actin (5125, rabbit; Cell Signaling), GAPDH (97166, mouse; Cell Signaling), ATF6 (66563-1-Ig, mouse; ProteinTech), TAP1 (12341, rabbit; Cell Signaling), CHOP (2895, mouse; Cell Signaling), ATF4 (11815, rabbit; Cell Signaling), ovalbumin (P1-196, rabbit; Thermo Fisher Scientific), human Fc (ab977225, rabbit; Abcam), Myc tag (2272, rabbit; Cell Signaling), and biotin (5597, rabbit; Cell Signaling). IRE1α lumenal domain (mouse), XBP1s (rabbit), and pIRE1α (rabbit) antibodies were generated at Genentech. Secondary antibodies used were for mouse (715-035-150; The Jackson Laboratory) and rabbit (711-035-152; The Jackson Laboratory).

[2] = tested on: PERK (ATF4, CHOP) in BMDCs; test: PERK activation in BMDCs (immunoblot of ATF4 and CHOP); assay type: cell-based, mouse; settings: MG132 5 μM or ovalbumin 500 μg/ml, in words
Method: (§1) Figure S1. Antigen pulsing of BMDCs activates IRE1α. (A) BMDCs were treated with MG132 (5 μM) or ovalbumin (500 μg/ml) for indicated time points and analyzed by IB. (B) BMDCs were pulsed with ovalbumin (500 μg/ml) and G9668 (3 μM) for indicated time periods and analyzed by IB. (C) Molecular structure, potency, and kinase selectivity of G9668. (D) Schematic representation of G9668 interaction with 220 kinases at 1 μM. Size and color of circles represent interaction strength. Analysis was conducted by KinomeScan. (E) BMDCs were pulsed for 4 h with APC-tagged ovalbumin or soluble CD4-Fc protein (500 μg/ml) with amiloride (10 μM); uptake of protein was assayed by flow cytometry (n = 3). (F) WT or MyD88 KO Flt3L-derived BMDCs were pulsed with ovalbumin (500 μg/ml) or soluble CD4-Fc protein (500 μg/ml), or treated with LPS (10 μg/ml) for 4 h and analyzed by IB. (G) MEFs and BMDCs were pulsed with ovalbumin or treated with Tg (100 nM) for 4 h and analyzed by IB. Images in A, B, F, and G represent at least two similar experiments, and molecular weights represent kD; E bar graphs represent mean ± SD from three independent biological repeats. Analysis for E was performed using unpaired, two-tailed t test; *, P ≤ 0.05; **, P ≤ 0.01. Source data are available for this figure: SourceData FS1. […]

ATF6 in BMDCs = test: ATF6 activation in BMDCs (immunoblot, proteolytic processing); assay type: cell-based, mouse; settings: MG132 5 μM or ovalbumin 500 μg/ml, in words
Method: as §1

heat-denatured ovalbumin = heat-denatured ovalbumin (UniProt P01012); test: ELISA; native or heat-denatured ovalbumin coated on a 96-well plate, blocked with 1% BSA; IRE1α LD-Fc (10 μg/ml) in PBS with 20 mM Hepes, 100 mM KOAc, 0.2% tween-20, 2 h, room temperature; detection with HRP-conjugated anti-human Fc antibody
[3] = tested on: IRE1α in MyD88 KO Flt3L-derived BMDCs; test: IRE1α activation in MyD88 KO Flt3L-derived BMDCs (immunoblot); assay type: cell-based, mouse; settings: ovalbumin 500 μg/ml or LPS 10 μg/ml, 4 h
Method: as §1

IRE1α LD-Fc [4] = test: Plate-based ovalbumin binding to IRE1α LD-Fc; parameters: species or system human; settings: 2 h, room temperature
Method: (§2) For experiments testing ovalbumin binding, a human LD-Fc was used at indicated concentrations. LD-Fc is comprised of amino acids M1-D443 of IRE1α fused C-terminally to a linker ([…]) followed by the human IgG1 hinge and Fc portion. Ovalbumin (Sigma-Aldrich) was dissolved in sterile PBS and used in native state or denatured as indicated by incubation at 95°C buffer for 10 min.
For plate-based binding experiments, native or heat-denatured ovalbumin at indicated concentrations was bound to a flat-bottom 96-well plate (Corning Inc.) with coating buffer (BioLegend), washed with PBSt, blocked with 1% BSA in PBS, and subsequently incubated with IRE1α LD-Fc (10 μg/ml) in binding buffer composed of PBS with 20 mM Hepes, 100 mM KOAc, and 0.2% tween-20 for 2 h at room temperature. Plates were washed again with PBSt and incubated with an anti-human Fc HRP-conjugated antibody (ab977225; Abcam). Development was performed with 3,3′,5,5′-Tetramethylbenzidine solution and terminated with Stop solution (BioLegend). Readings were taken with a SpectraMax M2 spectrometer (Molecular Devices).

IRE1α LD-Fc [5] = test: Co-immunoprecipitation of ovalbumin with IRE1α LD-Fc; assay type: binding, human; settings: LD-Fc 10 μg/ml, 2 h; ovalbumin 1-300 μg/ml; in words
Method: as §2
For co-immunoprecipitation experiments, IRE1α LD-Fc (10 μg/ml) and ovalbumin (indicated concentrations) were co-incubated in binding buffer (as described above) for 2 h and then immunoprecipitated with anti-IRE1α LD antibody (made in-house at Genentech), conjugated to sepharose beads, overnight at 4°C. Beads were subsequently washed four times with lysis buffer and boiled in SDS sample buffer for 10 min. Samples were then analyzed by SDS-PAGE followed by immunoblot.

For “SIINFEKL [ovalbumin-derived octapeptide, reference compound]”, the IRE1α activation [1] was “little effect on IRE1α activity”.

“polyinosinic:polycytidylic acid [poly-I:C, reference compound]” was tested, and the IRE1α activation [1] was “much weaker IRE1α activation than did the potent pharmacological ER-stressor tunicamycin”.

For `CC(C)C[C@@H](C=O)NC(=O)[C@H](CC(C)C)NC(=O)[C@H](CC(C)C)NC(=O)OCc1ccccc1` [MG132, reference compound] (Cbz-Leu-Leu-Leu-aldehyde), the IRE1α activation [1] was “robust activation”, the PERK activation [2] was “robust activation” and the ATF6 activation (ATF6 in BMDCs) was “robust activation”.

For `N=C(N)NC(=O)c1nc(Cl)c(N)nc1N` [amiloride, reference compound], the “block of antigen-induced IRE1α activation” value ([1]; BMDCs pulsed with antigen 500 μg/ml, G9668 3 μM or amiloride 10 μM) was “blocked antigen-induced IRE1α stimulation in BMDCs”.

“IRE1α lumenal domain fused to an Fc tag (IRE1α LD-Fc) (from UniProt O75460 19-443) (Fc fusion)” was tested, and the Kd (heat-denatured ovalbumin) was 300 µM.

In the case of “lipopolysaccharide [LPS, reference compound]”, the “IRE1α activation, MyD88 KO BMDCs” value [3] is reported as “failed to activate IRE1α”.

For tunicamycin [reference compound], the IRE1α activation [1] was “potent pharmacological ER-stressor”.

B1: heat-denatured ovalbumin: ovalbumin denatured by incubation at 95°C for 10 min (protein)
chain: MGSIGAASMEFCFDVFKELKVHHANENIFYCPIAIMSALAMVYLGAKDSTRTQINKVVRFDKLPGFGDSIEAQCGTSVNVHSSLRDILNQITKPNDVYSFSLASRLYAEERYPILPEYLQCVKELYRGGLEPINFQTAADQARELINSWVESQTNGIIRNVLQPSSVDSQTAMVLVNAIVFKGLWEKAFKDEDTQAMPFRVTEQESKPVQMMYQIGLFRVASMASEKMKILELPFASGTMSMLVLLPDEVSGLEQLESIINFEKLTEWTSSNVMEERKIKVYLPRMKMEEKYNLTSVLMAMGITDVFSSSANLSGISSAESLKISQAVHAAHAEINEAGREVVGSAEAGVDAASVSEEFRADHPFLFCIKHIATNAVLFFGRCVSP
In the case of B1, the “binding to immobilized IRE1α LD-Fc” value (IRE1α LD-Fc [4]; LD-Fc 10 μg/ml, in words) is reported as “specific and saturable binding”, the Kd (IRE1α LD-Fc [4]; plate-based, IRE1α LD-Fc 10 μg/ml, estimated, read-out: equilibrium dissociation constant (Kd)) is reported as roughly 300 µM and the “co-immunoprecipitation with IRE1α LD-Fc” value (IRE1α LD-Fc [5]) is reported as “concentration-dependent association”.
